# Test results as given in US3970648A, “2-[2-(5-Nitro-2-furyl)vinyl]-4-(anilino)quinazolines” (Diamond Shamrock Corporation, priority 1974, dated 1976).
# Experiments:
# [1] = system: Bordetella bronchiseptica; experiment: Bactericide test, Bordetella bronchiseptica (agar streak plate); assay type: cell-based
# Excerpt: (§1) Test formulations were examined for bactericidal and/or bacteriostatic activity against the test organisms shown in Tables A and B. These organisms were chosen as being representative of commercially important pathogens affecting animal agriculture. The antibiotic chlortetracycline was chosen as a positive control, since it has a broad spectrum of activity against a large number of organisms, and its activity can be used for comparative purposes.
# (§2) Basic test formulations of the product of Examples I, II, III, and of chlortetracycline were prepared by dissolving 16 mg (0.016 g) in 2.0 ml of stock emulsifier solution (0.25% Triton X-155 in acetone by volume) and making each solution up to 50 ml with deionized water. The concentration of the test compound in the basic formulation was 320 ppm. Lower concentrations of the test compound were obtained by diluting the basic formulation with a 4% solution of the stock emulsifier in deionized water so that each dilution in the series differed only in test compound content.
# (§3) Nutrient-tryptic soy agar (NTA) consisting of 2.0% Difco Bactoagar 0.8% nutrient broth (Difco), and 0.5% tryptic soy broth (Difco) was prepared and sterilized by autoclaving. A 2 ml aliquot of each test formulation was added to 8 ml of molten NTA. This mixture was then plated in a sterile polystyrene petri dish (100 × 15 mm). After the agar was set, suspensions of each of the test organisms were simultaneously streaked onto the surface of the agar. The inoculated plates were incubated for 48 hr at 28°C. The inhibition of growth of each organism was rated by visual comparison with the organism developing on non-treated agar. Growth inhibition reported as per cent control was rated in three categories as follows: 0% control, growth equivalent to that on non-treated agar; 50% control, sparse development and separated colonies; 100% control, no visible growth or development of colonies.
# Streptococcus agalactiae = experiment: Bactericide test, Streptococcus agalactiae (agar streak plate); assay type: cell-based
# Excerpt: as §1, §2, §3
# Salmonella gallinarum = experiment: Bactericide test, Salmonella gallinarum (agar streak plate); assay type: cell-based
# Excerpt: as §1, §2, §3
# (§4) Test formulations of the product of Example IV were examined for bactericidal and/or bacteriostatic activity against the test organisms shown in Table B using the Bactericide Test described in Example V. The inhibition of organism growth with each diluted test formulation was rated visually by comparison with the organism developing on a non-treated control agar plate. Growth inhibition reported as per cent control was rated in three categories as follows: 0% control, growth equivalent to that on non-treated agar; 50% control is sparse development and separated colonies; and 100% control, development of individual colonies was not apparent.
# [2] = Growth promotion in chicks, Example XII repeat (Table VII); assay type: in vivo, broiler cross chicks; settings: for growth rate / feed efficiency, production parameters (in words): 25 g/T, second set of tests
# Excerpt: (§5) This example compares growth promotion activity of the product of Example I with other growth promotants at a concentration of 25 g/T in the Basal Ration described in Example VII. The other growth promotants include the product described in Example I of U.S. Pat. No. 3,542,784 -- Burch and quinoxaline-1,4-dioxide. Day old broiler cross chicks were weight equalized into groups of eight chicks each, and four replicates of eight chicks each were fed the experimental rations over a 4 week period.
# The growth promotion tests described in Example X were repeated with the additional testing the products of Examples II and III.
# [3] = Growth promotion in chicks at 25 g/T, Example X (Table IV); assay type: in vivo, broiler cross chicks
# Excerpt: as §5
# Salmonella typhimurium = experiment: Bactericide test, Salmonella typhimurium (agar streak plate); assay type: cell-based
# Excerpt: as §1, §2, §3
# Vibrio coli = experiment: Bactericide test, Vibrio coli (agar streak plate); assay type: cell-based
# Excerpt: as §1, §2, §3
# Streptococcus group E = experiment: Bactericide test, Streptococcus group E (agar streak plate); assay type: cell-based
# Excerpt: as §1, §2, §3
# Streptococcus faecalis = experiment: Bactericide test, Streptococcus faecalis (agar streak plate); assay type: cell-based
# Excerpt: as §1, §2, §3, §4
# Salmonella cholerasuis = experiment: Bactericide test, Salmonella cholerasuis (agar streak plate); assay type: cell-based
# Excerpt: as §1, §2, §3, §4
# [4] = system: Erysipelothrix rhusiopathiae; experiment: Bactericide test, Erysipelothrix rhusiopathiae (agar streak plate); assay type: cell-based
# Excerpt: as §1, §2, §3
# Staphylococcus aureus = experiment: Bactericide test, Staphylococcus aureus (agar streak plate); assay type: cell-based
# Excerpt: as §1, §2, §3, §4
# [5] = Growth promotion in chicks, Example XII first set (Table VI); assay type: in vivo, broiler cross chicks; settings: for Average 4 Week Performance: Feed Efficiency / Average 4 Week Performance: Gain / Improved Response Over Basal Ration: Feed Efficiency / Improved Response Over Basal Ration: Gain: 25 g/T in basal ration, 4 weeks; for growth rate / feed efficiency, production parameters (in words): 25 g/T, first set of tests
# Excerpt: This example compares growth promotion activity of the product of Example I with other growth promotants at a concentration of 25 g/T in the Basal Ration described in Example VII. The other growth promotants include the product described in Example I of U.S. Pat. No. 3,542,784 -- Burch and quinoxaline-1,4-dioxide. Day old broiler cross chicks were weight equalized into groups of eight chicks each, and four replicates of eight chicks each were fed the experimental rations over a 4 week period. […]
# [6] = Growth promotion in chicks at low feed levels, Example VIII (Table II); assay type: in vivo, broiler cross chicks; settings: 10 g/T in basal ration; 4 weeks
# Excerpt: Day old broiler cross chicks were weight equalized into groups of eight chicks each and were placed in battery brooders. The 32 chick treatment groups (four replicates) were fed one of the five rations described below for a 4 week period. Weekly measurements of body weights and feed consumption were made by replicate, and these measurements used to calculate weight gain and feed efficiency.
# The basal ration was the basal ration used in Example VII above. The remaining five rations were obtained by mixing the indicated quantities of bacitracin (4 g/T), chlortetracycline (10 g/T), product of Example I (10 g/T), and product of Example III of U.S. Pat. No. 3,542,784 -- Burch (10 g/T) as growth promotants with the basal ration.
# [7] = 100% inhibition at lower concentrations
# [8] = 25 g/T in basal ration, 4 weeks
compound,measurement,setting,value
2-[2-(5-nitro-2-furyl)vinyl]-4-(o-hydroxyanilino)quinazoline [Example III],% Inhibition,[1]; 0.125 ppm,100%
same,% Inhibition,[1]; 0.25 ppm,100%
same,% Inhibition,[1]; 0.5 ppm,100%
same,% Inhibition,[1]; 1 ppm,100%
same,% Inhibition,[1]; 2 ppm,100%
same,% Inhibition,[1]; 4 ppm,100%
same,% Inhibition,[1]; 8 ppm,100%
same,% Inhibition,[1]; 16 ppm,100%
same,% Inhibition,[1]; 32 ppm,100%
same,% Inhibition,[1]; 64 ppm,100%
same,effectiveness compared with chlortetracycline (in words),[1]; [7],considerably more effective
same,% Inhibition,Streptococcus agalactiae; 0.125 ppm,100%
same,% Inhibition,Streptococcus agalactiae; 0.25 ppm,100%
same,% Inhibition,Streptococcus agalactiae; 0.5 ppm,100%
same,% Inhibition,Streptococcus agalactiae; 1 ppm,100%
same,% Inhibition,Streptococcus agalactiae; 2 ppm,100%
same,% Inhibition,Streptococcus agalactiae; 4 ppm,100%
same,% Inhibition,Streptococcus agalactiae; 8 ppm,100%
same,% Inhibition,Streptococcus agalactiae; 16 ppm,100%
same,% Inhibition,Streptococcus agalactiae; 32 ppm,100%
same,% Inhibition,Streptococcus agalactiae; 64 ppm,100%
same,effectiveness compared with chlortetracycline (in words),Streptococcus agalactiae; [7],considerably more effective
same,% Inhibition,Salmonella gallinarum; 0.125 ppm,0%
same,% Inhibition,Salmonella gallinarum; 0.25 ppm,0%
same,% Inhibition,Salmonella gallinarum; 0.5 ppm,0%
same,% Inhibition,Salmonella gallinarum; 1 ppm,0%
same,% Inhibition,Salmonella gallinarum; 2 ppm,0%
same,% Inhibition,Salmonella gallinarum; 4 ppm,50%
same,% Inhibition,Salmonella gallinarum; 8 ppm,50%
same,% Inhibition,Salmonella gallinarum; 16 ppm,100%
same,% Inhibition,Salmonella gallinarum; 32 ppm,100%
same,% Inhibition,Salmonella gallinarum; 64 ppm,100%
same,Average 4 Week Performance: Feed Efficiency,[2]; [8],1.669
same,Average 4 Week Performance: Gain,[2]; [8],723.7 g
same,Improved Response Over Basal Ration: Feed Efficiency,[2]; [8],+6.5%
same,Improved Response Over Basal Ration: Gain,[2]; [8],+6.0%
same,"growth rate / feed efficiency, production parameters (in words)",[2],more substantial response
same,Average 4 Week Performance: Feed Efficiency,[3]; [8],1.503
same,Average 4 Week Performance: Gain,[3]; [8],812.7 g
same,Improved Response Over Basal Ration: Feed Efficiency,[3]; [8],+3.2%
same,Improved Response Over Basal Ration: Gain,[3]; [8],+6.2%
same,% Inhibition,Salmonella typhimurium; 0.125 ppm,0%
same,% Inhibition,Salmonella typhimurium; 0.25 ppm,0%
same,% Inhibition,Salmonella typhimurium; 0.5 ppm,0%
same,% Inhibition,Salmonella typhimurium; 1 ppm,0%
same,% Inhibition,Salmonella typhimurium; 2 ppm,0%
same,% Inhibition,Salmonella typhimurium; 4 ppm,0%
same,% Inhibition,Salmonella typhimurium; 8 ppm,0%
same,% Inhibition,Salmonella typhimurium; 16 ppm,0%
same,% Inhibition,Salmonella typhimurium; 32 ppm,0%
same,% Inhibition,Salmonella typhimurium; 64 ppm,0%
same,% Inhibition,Vibrio coli; 0.125 ppm,100%
same,% Inhibition,Vibrio coli; 0.25 ppm,100%
same,% Inhibition,Vibrio coli; 0.5 ppm,100%
same,% Inhibition,Vibrio coli; 1 ppm,100%
same,% Inhibition,Vibrio coli; 2 ppm,100%
same,% Inhibition,Vibrio coli; 4 ppm,100%
same,% Inhibition,Vibrio coli; 8 ppm,100%
same,% Inhibition,Vibrio coli; 16 ppm,100%
same,% Inhibition,Vibrio coli; 32 ppm,100%
same,% Inhibition,Vibrio coli; 64 ppm,100%
same,effectiveness compared with chlortetracycline (in words),Vibrio coli; [7],considerably more effective
same,% Inhibition,Streptococcus group E; 0.125 ppm,100%
same,% Inhibition,Streptococcus group E; 0.25 ppm,100%
same,% Inhibition,Streptococcus group E; 0.5 ppm,100%
same,% Inhibition,Streptococcus group E; 1 ppm,100%
same,% Inhibition,Streptococcus group E; 2 ppm,100%
same,% Inhibition,Streptococcus group E; 4 ppm,100%
same,% Inhibition,Streptococcus group E; 8 ppm,100%
same,% Inhibition,Streptococcus group E; 16 ppm,100%
same,% Inhibition,Streptococcus group E; 32 ppm,100%
same,% Inhibition,Streptococcus group E; 64 ppm,100%
same,effectiveness compared with chlortetracycline (in words),Streptococcus group E; [7],considerably more effective
same,% Inhibition,Streptococcus faecalis; 0.125 ppm,0%
same,% Inhibition,Streptococcus faecalis; 0.25 ppm,0%
same,effectiveness compared with chlortetracycline (in words),Streptococcus faecalis; [7],considerably more effective
same,% Inhibition,Salmonella cholerasuis; 0.125 ppm,0%
same,% Inhibition,Salmonella cholerasuis; 0.25 ppm,0%
same,% Inhibition,Salmonella cholerasuis; 0.5 ppm,0%
same,% Inhibition,Salmonella cholerasuis; 1 ppm,0%
same,% Inhibition,Salmonella cholerasuis; 2 ppm,0%
same,% Inhibition,Salmonella cholerasuis; 16 ppm,100%
same,% Inhibition,Salmonella cholerasuis; 32 ppm,100%
same,% Inhibition,Salmonella cholerasuis; 64 ppm,100%
same,% Inhibition,[4]; 1 ppm,100%
same,% Inhibition,[4]; 2 ppm,100%
same,% Inhibition,[4]; 4 ppm,100%
same,% Inhibition,[4]; 8 ppm,100%
same,% Inhibition,[4]; 16 ppm,100%
same,% Inhibition,[4]; 32 ppm,100%
same,% Inhibition,[4]; 64 ppm,100%
same,effectiveness compared with chlortetracycline (in words),[4]; [7],considerably more effective
same,% Inhibition,Staphylococcus aureus; 0.125 ppm,0%
same,% Inhibition,Staphylococcus aureus; 0.25 ppm,0%
same,% Inhibition,Staphylococcus aureus; 0.5 ppm,0%
same,% Inhibition,Staphylococcus aureus; 1 ppm,0%
same,% Inhibition,Staphylococcus aureus; 2 ppm,0%
same,% Inhibition,Staphylococcus aureus; 4 ppm,0%
same,% Inhibition,Staphylococcus aureus; 8 ppm,0%
same,% Inhibition,Staphylococcus aureus; 16 ppm,0%
same,% Inhibition,Staphylococcus aureus; 32 ppm,0%
same,% Inhibition,Staphylococcus aureus; 64 ppm,0%
same,Average 4 Week Performance: Feed Efficiency,[5],1.597
same,Average 4 Week Performance: Gain,[5],766.9 g
same,Improved Response Over Basal Ration: Feed Efficiency,[5],+2.3%
same,Improved Response Over Basal Ration: Gain,[5],+3.1%
same,"growth rate / feed efficiency, production parameters (in words)",[5],moderate improvements
"O=[N+]([O-])c1ccc(-c2nc(Nc3ccc(O)cc3)c3ccccc3n2)o1 [2-(5-nitro-2-furyl)-4-(p-hydroxyanilino)quinazoline, reference compound]","growth rate / feed efficiency, production parameters (in words)",[2],essentially no effect on growth rate or feed efficiency
same,effect on feed efficiency (in words),[3]; 25 g/T,"slight, if any, effect on feed efficiency"
same,growth response (in words),[3]; 25 g/T,appeared to give a growth response
same,Average 4 Week Performance: Feed Efficiency,[6],1.726
same,Average 4 Week Performance: Gain,[6],723.1 g
same,Improved Response Over Basal Ration: Feed Efficiency,[6],+1.9%
same,Improved Response Over Basal Ration: Gain,[6],+0.4%
same,Average 4 Week Performance: Feed Efficiency,[5],1.675
same,Average 4 Week Performance: Gain,[5],736.9 g
same,Improved Response Over Basal Ration: Feed Efficiency,[5],-2.5%
same,Improved Response Over Basal Ration: Gain,[5],-1.0%
same,"growth rate / feed efficiency, production parameters (in words)",[5],essentially no effect on growth rate or feed efficiency
